# Results reported in article PMC10698194 (Nature Communications, 2023).
# Where “and” joins values, the source holds several entries; their conditions need not be identical. Equal values may be shown once. Read-outs that look alike come from different tables or passages of the source. Bridge positions count the residues as written; N and C are the ends. Square brackets hold non-standard residues; d marks the D form. Peptide text beside a SMILES is read from it. * marks the point of attachment. X1 = C=CCN1CC[C@]23c4c5ccc(O)c4O[C@H]2[C@H](N*)CC[C@@]3(O)[C@H]1C5
# Assays:
# human MOR = target: T1, human MOR (Homo sapiens, UniProt P35372); assay: [35S]GTPγS binding assay, CHO membranes; format: biochemical; conditions: [35S]GTPγS
# T1 construct: expressed in transfected cells
# T1 sequence (P35372 whole entry): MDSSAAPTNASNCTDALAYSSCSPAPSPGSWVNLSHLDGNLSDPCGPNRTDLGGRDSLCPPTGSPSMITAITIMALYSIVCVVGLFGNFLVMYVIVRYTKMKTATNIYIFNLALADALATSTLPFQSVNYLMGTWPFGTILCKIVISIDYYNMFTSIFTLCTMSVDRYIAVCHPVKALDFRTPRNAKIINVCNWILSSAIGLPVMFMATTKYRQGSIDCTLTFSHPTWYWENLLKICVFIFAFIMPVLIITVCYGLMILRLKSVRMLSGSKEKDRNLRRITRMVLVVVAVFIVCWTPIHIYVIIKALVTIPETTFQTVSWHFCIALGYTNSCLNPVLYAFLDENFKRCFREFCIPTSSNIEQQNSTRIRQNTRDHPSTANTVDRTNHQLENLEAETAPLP
# mouse KOR, Gαi2 = target: T2, mouse KOR, Gαi2 (Mus musculus, UniProt P33534); assay: TRUPATH BRET G protein assay, Gαi2; format: cell-based; conditions: TRUPATH
# T2 construct: expressed in transfected cells; host or cells: HEK293T (ATCC, CRL-3216), transient
# T2 sequence (P33534 whole entry): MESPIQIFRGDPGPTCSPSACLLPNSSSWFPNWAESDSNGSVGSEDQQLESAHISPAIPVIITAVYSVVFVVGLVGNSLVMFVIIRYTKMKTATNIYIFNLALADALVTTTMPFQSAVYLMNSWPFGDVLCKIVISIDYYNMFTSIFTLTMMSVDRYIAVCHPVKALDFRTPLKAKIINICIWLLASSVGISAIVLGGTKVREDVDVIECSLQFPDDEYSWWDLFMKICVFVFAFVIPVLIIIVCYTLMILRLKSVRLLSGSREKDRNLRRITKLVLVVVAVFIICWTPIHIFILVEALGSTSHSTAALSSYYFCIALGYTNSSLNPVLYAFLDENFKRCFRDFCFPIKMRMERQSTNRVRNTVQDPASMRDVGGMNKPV
# mouse KOR, GαoA = mouse KOR, GαoA (Mus musculus, UniProt P33534); assay: TRUPATH BRET G protein assay, GαoA; format: cell-based; conditions: read-out: Emax (%) GαoA
# Chain of mouse KOR, GαoA (P33534 whole entry): as above
# Chain of mouse KOR, GαoA (P09471 2-354 partner): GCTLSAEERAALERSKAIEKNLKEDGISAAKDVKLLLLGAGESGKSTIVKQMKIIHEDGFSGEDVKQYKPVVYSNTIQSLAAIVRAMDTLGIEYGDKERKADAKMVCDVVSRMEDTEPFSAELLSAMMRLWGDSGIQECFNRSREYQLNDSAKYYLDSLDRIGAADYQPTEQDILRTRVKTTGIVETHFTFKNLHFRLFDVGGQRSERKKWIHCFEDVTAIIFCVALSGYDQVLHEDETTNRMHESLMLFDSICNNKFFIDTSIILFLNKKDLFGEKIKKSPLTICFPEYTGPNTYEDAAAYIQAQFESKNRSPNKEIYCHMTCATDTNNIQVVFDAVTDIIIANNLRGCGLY
# mouse KOR, Gαgustducin = mouse KOR, Gαgustducin (Mus musculus, UniProt P33534); assay: TRUPATH BRET G protein assay, Gαgustducin; format: cell-based; conditions: read-out: Emax (%) Gαgustducin
# Chain of mouse KOR, Gαgustducin (P33534 whole entry): as the sequence (P33534 whole entry) above
# Chain of mouse KOR, Gαgustducin (A8MTJ3 2-354 partner): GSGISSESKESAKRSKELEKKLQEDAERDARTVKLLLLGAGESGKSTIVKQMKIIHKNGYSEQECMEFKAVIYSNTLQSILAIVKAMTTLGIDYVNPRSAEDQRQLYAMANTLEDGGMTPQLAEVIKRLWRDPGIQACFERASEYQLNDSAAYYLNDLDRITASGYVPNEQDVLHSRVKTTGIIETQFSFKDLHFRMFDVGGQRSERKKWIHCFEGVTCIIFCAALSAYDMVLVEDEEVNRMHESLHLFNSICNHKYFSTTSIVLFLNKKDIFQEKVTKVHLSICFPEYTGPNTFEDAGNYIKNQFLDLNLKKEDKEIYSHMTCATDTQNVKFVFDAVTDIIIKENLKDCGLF
# male SWISS mice [1] = assay: CFA-induced inflammatory hyperalgesia, Hargreaves test; format: in vivo, mouse; conditions: for CFA-induced inflammatory hyperalgesia (paw withdrawal latency): individual mice, listed as DNCP-ß-NalA (1)
# Protocol: CFA-induced inflammatory hyperalgesia was induced in male SWISS mice (8–10 weeks old, 30–35 g body weight, n = 53 mice) by s.c. injection of 20 µL emulsified CFA (1 mg mL^−1) into the plantar surface of the right hindpaw under brief isoflurane anesthesia. Nociceptive testing was performed 72 h after inoculation with CFA. Hindpaws withdrawal latencies to thermal stimulation were measured using the Hargreaves test[84] with an analgesiometer (Ugo Basile S.R.L., Varese, Italy). Male mice were habituated in individual Plexiglas boxes positioned on a glass surface (Ugo Basile S.R.L., Varese, Italy) for three days prior to the inoculation with CFA. A movable infrared generator (30% intensity) located under the glass floor was focused onto the plantar surface of the hindpaw and switched on to heat. Onset of the radiant stimulus triggered a timer, which was stopped by subsequent paw movement. To prevent tissue damage, a cut-off time of 20 s was imposed. […] The paw withdrawal latencies to thermal stimulus was expressed in seconds.
# male SWISS mice [2] = assay: Rotarod test (motor coordination/sedation); format: in vivo, mouse; conditions: DNCP-β-NalA(1) 3.8 and 7.6, U50,488 5.4 µmol kg^−1 s.c.
# Protocol: The rotarod test was used to evaluate coordinated locomotion and potential sedation induced by test drugs. […] Male SWISS mice (8–10 weeks old, 30–35 g body weight, n = 21 mice) were habituated to the equipment in two training sessions (30 min apart) one day before testing. On the experimental day, male mice were placed on the rotarod, and treadmill was accelerated from 4 to 40 rotations-per-minute over a period of 5 min. […] Decreased latencies to fall in the rotarod test indicate impaired motor performance. A 300 s cut-off time was used. The rotarod data are expressed as percentage (%) changes from the rotarod latencies obtained before (baseline) and after drug administration (test, T) were calculated as 100*(T/B).
# human KOR WT [3] = target: T3, human KOR WT (Homo sapiens, UniProt P41145); assay: cAMP inhibition assay normalized to salvinorin A; format: cell-based; conditions: KOR WT; normalized to salvinorin A
# T3 construct: FLAG; expressed in transfected cells; host or cells: HEK293T, transient
# T3 sequence (P41145 whole entry): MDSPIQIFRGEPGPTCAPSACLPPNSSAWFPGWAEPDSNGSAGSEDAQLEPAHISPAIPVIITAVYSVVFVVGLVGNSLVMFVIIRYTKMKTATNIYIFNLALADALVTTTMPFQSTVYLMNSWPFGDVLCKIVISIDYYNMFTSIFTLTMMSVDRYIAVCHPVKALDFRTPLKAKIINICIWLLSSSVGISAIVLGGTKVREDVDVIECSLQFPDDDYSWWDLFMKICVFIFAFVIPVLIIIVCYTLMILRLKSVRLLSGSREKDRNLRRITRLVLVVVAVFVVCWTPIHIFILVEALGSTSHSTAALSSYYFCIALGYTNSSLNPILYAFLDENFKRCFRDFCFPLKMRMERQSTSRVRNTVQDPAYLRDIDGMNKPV
# human KOR WT [4] = target: T3, human KOR WT; format: cell-based; conditions: HEK-293T, KOR WT
# human KOR M142A = target: T4, human KOR M142A (Homo sapiens, UniProt P41145, M142A); format: cell-based; conditions: HEK-293T
# T4 construct: FLAG; expressed in transfected cells; host or cells: HEK293 / HEK293T, transient
# T4 sequence (P41145 whole entry M142A): as the sequence (P41145 whole entry) above, with M142A counted along it
# human KOR I316A = target: T5, human KOR I316A (Homo sapiens, UniProt P41145, I316A); format: cell-based; conditions: HEK-293T
# T5 construct: FLAG; expressed in transfected cells; host or cells: HEK293 / HEK293T, transient
# T5 sequence (P41145 whole entry I316A): as the sequence (P41145 whole entry) above, with I316A counted along it
# human KOR Y320A = target: T6, human KOR Y320A (Homo sapiens, UniProt P41145, Y320A); format: cell-based; conditions: HEK-293T
# T6 construct: FLAG; expressed in transfected cells; host or cells: HEK293 / HEK293T, transient
# T6 sequence (P41145 whole entry Y320A): as the sequence (P41145 whole entry) above, with Y320A counted along it
# human KOR H304A = target: T7, human KOR H304A (Homo sapiens, UniProt P41145, H304A); format: cell-based; conditions: HEK-293T
# T7 construct: FLAG; expressed in transfected cells; host or cells: HEK293T
# T7 sequence (P41145 whole entry H304A): as the sequence (P41145 whole entry) above, with H304A counted along it
# human KOR L309A [5] = target: T8, human KOR L309A (Homo sapiens, UniProt P41145, L309A); format: cell-based; conditions: HEK-293T, KOR L309A
# T8 construct: FLAG; expressed in transfected cells; host or cells: HEK293T
# T8 sequence (P41145 whole entry L309A): as the sequence (P41145 whole entry) above, with L309A counted along it
# human KOR Y312A = target: T9, human KOR Y312A (Homo sapiens, UniProt P41145, Y312A); format: cell-based
# T9 construct: FLAG; expressed in transfected cells; host or cells: HEK293T
# T9 sequence (P41145 whole entry Y312A): as the sequence (P41145 whole entry) above, with Y312A counted along it
# human KOR Q115A = target: T10, human KOR Q115A (Homo sapiens, UniProt P41145, Q115A); assay: BRET β-arrestin-2 biosensor assay; format: cell-based
# T10 construct: FLAG; expressed in transfected cells; host or cells: HEK293 / HEK293T, transient
# T10 sequence (P41145 whole entry Q115A): as the sequence (P41145 whole entry) above, with Q115A counted along it
# human KOR I135A = target: T11, human KOR I135A (Homo sapiens, UniProt P41145, I135A); assay: BRET β-arrestin-2 biosensor assay; format: cell-based
# T11 construct: FLAG; expressed in transfected cells; host or cells: HEK293 / HEK293T, transient
# T11 sequence (P41145 whole entry I135A): as the sequence (P41145 whole entry) above, with I135A counted along it
# human KOR E209A = target: T12, human KOR E209A (Homo sapiens, UniProt P41145, E209A); assay: BRET β-arrestin-2 biosensor assay; format: cell-based; conditions: KOR E209A
# T12 construct: FLAG; expressed in transfected cells; host or cells: HEK293 / HEK293T, transient
# T12 sequence (P41145 whole entry E209A): as the sequence (P41145 whole entry) above, with E209A counted along it
# human KOR F293A = target: T13, human KOR F293A (Homo sapiens, UniProt P41145, F293A); assay: BRET β-arrestin-2 biosensor assay; format: cell-based
# T13 construct: FLAG; expressed in transfected cells; host or cells: HEK293 / HEK293T, transient
# T13 sequence (P41145 whole entry F293A): as the sequence (P41145 whole entry) above, with F293A counted along it
# human KOR L309A [6] = target: T8, human KOR L309A; assay: BRET β-arrestin-2 biosensor assay; format: cell-based; conditions: KOR L309A
# mouse KOR = mouse KOR (Mus musculus, UniProt P33534); assay: cell-based; parameters: expressed in transfected cells; host or cells: HEK293T, transient; conditions: HEK-293T, read-out: Emax β-arrestin-2 recruitment
# Chain of mouse KOR (P33534 whole entry): as the sequence (P33534 whole entry) above
# Chain of mouse KOR (P32121 whole entry partner): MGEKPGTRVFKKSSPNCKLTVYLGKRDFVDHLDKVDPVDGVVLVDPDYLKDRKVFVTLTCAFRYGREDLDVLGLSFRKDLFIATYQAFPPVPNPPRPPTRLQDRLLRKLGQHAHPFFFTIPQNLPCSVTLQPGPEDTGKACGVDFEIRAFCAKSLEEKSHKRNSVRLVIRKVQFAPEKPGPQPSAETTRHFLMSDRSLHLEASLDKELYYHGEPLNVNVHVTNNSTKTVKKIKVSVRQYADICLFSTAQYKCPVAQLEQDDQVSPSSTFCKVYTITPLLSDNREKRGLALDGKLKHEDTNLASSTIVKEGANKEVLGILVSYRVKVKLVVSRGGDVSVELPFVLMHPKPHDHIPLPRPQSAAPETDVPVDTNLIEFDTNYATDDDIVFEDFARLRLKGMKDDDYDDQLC
smiles,measurement,setting,value
C=CCN1CC[C@]23c4c5ccc(O)c4O[C@H]2[C@H](NC(=O)[C@@H](Cc2ccccc2)NC(=O)[C@@H](NC(=O)[C@@H]2CSCC(=O)N[C@@H](Cc4ccc(O)cc4)C(=O)N[C@@H](C)C(=O)N[C@H](Cc4ccc(O)cc4)C(=O)N[C@@H]([C@@H](C)O)C(=O)N[C@@H]([C@@H](C)O)C(=O)N2)[C@@H](C)O)CC[C@@]3(O)[C@H]1C5 [DNCP-β-NalA(1)] ({CH2CO}-YA[dY]TTCT[dF]-X1; thioether N-6),EC50 (M) MOR,human MOR,no stimulation up to 10 µM
same,Emax,"mouse KOR, Gαi2",62 ± 6%
same,Emax,"mouse KOR, GαoA",56 ± 7%
same,Emax,"mouse KOR, Gαgustducin",101 ± 5%
same,CFA-induced inflammatory hyperalgesia (paw withdrawal latency),"male SWISS mice [1]; 0.4 µmol/kg, time 0.5 h",4.5 s and 3.8 s and 3.4 s and 4.3 s and 3.3 s and 4.6 s
same,CFA-induced inflammatory hyperalgesia (paw withdrawal latency),"male SWISS mice [1]; 0.4 µmol/kg, time 1 h",4.1 s and 5.3 s and 2.8 s and 3.2 s and 3 s and 2.4 s
same,CFA-induced inflammatory hyperalgesia (paw withdrawal latency),"male SWISS mice [1]; 0.4 µmol/kg, time 2 h",5.2 seconds and 3.9 seconds and 3.8 seconds and 3.4 seconds (2×) and 3.2 seconds
same,CFA-induced inflammatory hyperalgesia (paw withdrawal latency),"male SWISS mice [1]; 0.4 µmol/kg, time 3 h",4.6 seconds and 3.9 seconds and 4.1 seconds and 3.4 seconds (2×) and 2.9 seconds
same,CFA-induced inflammatory hyperalgesia (paw withdrawal latency),"male SWISS mice [1]; 0.4 µmol/kg, time 4 h",4 s and 3.6 s and 3.4 s and 3 s and 3.2 s and 2.7 s
same,CFA-induced inflammatory hyperalgesia (paw withdrawal latency),"male SWISS mice [1]; 0.8 µmol/kg, time 0.5 h",3.8 s and 4.7 s and 5.2 s and 5.9 s and 4 s and 4.4 s
same,CFA-induced inflammatory hyperalgesia (paw withdrawal latency),"male SWISS mice [1]; 0.8 µmol/kg, time 1 h",3.4 seconds and 3.5 seconds (2×) and 4.2 seconds and 3.8 seconds and 3.6 seconds
same,CFA-induced inflammatory hyperalgesia (paw withdrawal latency),"male SWISS mice [1]; 0.8 µmol/kg, time 2 h",2.7 seconds and 3.7 seconds and 3.9 seconds (2×) and 3.4 seconds and 4 seconds
same,CFA-induced inflammatory hyperalgesia (paw withdrawal latency),"male SWISS mice [1]; 0.8 µmol/kg, time 3 h",3.5 seconds (3×) and 3.1 seconds (2×) and 2.9 seconds
same,CFA-induced inflammatory hyperalgesia (paw withdrawal latency),"male SWISS mice [1]; 0.8 µmol/kg, time 4 h",2.6 seconds and 3.4 seconds and 3 seconds and 3.2 seconds and 3.1 seconds (2×)
same,CFA-induced inflammatory hyperalgesia (paw withdrawal latency),"male SWISS mice [1]; 0.8 µmol/kg, time BL",10.2 s and 11.3 s and 9.9 s and 10.1 s and 10.3 s
same,CFA-induced inflammatory hyperalgesia (paw withdrawal latency),"male SWISS mice [1]; 1.9 µmol/kg, time 0.5 h",4.2 s and 5.6 s and 7.4 s and 7.3 s and 7.2 s and 5.3 s
same,CFA-induced inflammatory hyperalgesia (paw withdrawal latency),"male SWISS mice [1]; 1.9 µmol/kg, time 1 h",3.9 seconds and 4.5 seconds (2×) and 6.6 seconds and 5 seconds and 3.5 seconds
same,CFA-induced inflammatory hyperalgesia (paw withdrawal latency),"male SWISS mice [1]; 1.9 µmol/kg, time 2 h",2.9 s and 4.1 s and 4.4 s and 3.4 s and 3.5 s and 3.8 s
same,CFA-induced inflammatory hyperalgesia (paw withdrawal latency),"male SWISS mice [1]; 1.9 µmol/kg, time 3 h",3.5 seconds (2×) and 3.8 seconds and 4.4 seconds and 3.3 seconds and 2.9 seconds
same,CFA-induced inflammatory hyperalgesia (paw withdrawal latency),"male SWISS mice [1]; 1.9 µmol/kg, time 4 h",2.5 seconds and 2.6 seconds and 2.7 seconds (2×) and 2.8 seconds and 3.5 seconds
same,CFA-induced inflammatory hyperalgesia (paw withdrawal latency),"male SWISS mice [1]; 1.9 µmol/kg, time BL",10.6 s and 9.8 s and 10 s and 10.4 s and 10.3 s
same,return of thermal nociceptive thresholds to basal values,male SWISS mice [1]; after drug administration,2 h
same,time of peak effect,male SWISS mice [1]; s.c.,15 min
same,effect on thermal sensitivity / paw withdrawal latencies,"male SWISS mice [1]; s.c., male mice",significantly reduced thermal sensitivity
same,rotarod performance / motor behavior,male SWISS mice [2],no changes in the motor behavior
same,Emax,human KOR WT [3],100.6 ± 0.9%
same,Emax,human KOR WT [4],85.9 ± 1.2%
same,Emax,human KOR M142A,69.4 ± 1.97%
same,Emax,human KOR I316A,85.75 ± 0.72%
same,Emax,human KOR Y320A,86.8 ± 2.05%
same,Emax,human KOR H304A,92.57 ± 0.43%
same,Emax,human KOR L309A [5],95.98 ± 0.44%
same,Emax,"human KOR Y312A; HEK-293T, KOR Y312A",82.46 ± 0.65%
same,loss of potency in G protein activation,human KOR Y312A; Y312A vs WT,4 fold
same,Emax,human KOR Q115A,60 ± 1.71%
same,BRET-βarresin2 recruitment,"human KOR I135A; Log [ligand] (M) -5, single replicates",0.1789 and 0.1779 and 0.1349 and 0.1369 (2×)
same,BRET-βarresin2 recruitment,"human KOR I135A; Log [ligand] (M) -6, single replicates",0.1739 and 0.1699 and 0.1669 and 0.1229 and 0.1319 and 0.1359
same,BRET-βarresin2 recruitment,"human KOR I135A; Log [ligand] (M) -7, single replicates",0.1699 (2×) and 0.1609 and 0.1309 and 0.1289 and 0.1299
same,BRET-βarresin2 recruitment,"human KOR I135A; Log [ligand] (M) -8, single replicates",0.1669 and 0.1659 and 0.1729 and 0.1269 and 0.1239 and 0.1349
same,BRET-βarresin2 recruitment,"human KOR I135A; Log [ligand] (M) -9, single replicates",0.1669 (2×) and 0.1649 and 0.1249 and 0.1239 and 0.1259
same,BRET-βarresin2 recruitment,"human KOR I135A; Log [ligand] (M) -10, single replicates",0.1689 and 0.1639 (2×) and 0.1279 and 0.1309 and 0.1339
same,BRET-βarresin2 recruitment,"human KOR I135A; Log [ligand] (M) -11, single replicates",0.1699 and 0.1669 and 0.1689 and 0.1249 and 0.1279 (2×)
same,BRET-βarresin2 recruitment,"human KOR I135A; Log [ligand] (M) -12, single replicates",0.1519 and 0.1569 (2×) and 0.1249 (2×) and 0.1259
same,Emax,human KOR E209A,87.3 ± 1.31%
same,Emax,human KOR F293A,26.5 ± 1.01%
same,Emax,human KOR L309A [6],62.2 ± 1.08%
same,Emax,mouse KOR,41%
